# Measurements taken from US20070135378A1, “Method for the direct synthesis of oligorhamnosides, composition comprising oligorhamnosides and use thereof as a medicament” (priority 2003, published 2007).
# Experiments:
# [1] = test system: dendritic cells; format: cell-based
# Method: Viability is determined from the mortality translated directly by the proportion of PI signal.
# [2] = test system: dendritic cells; assay: Dendritic cell maturation (CD86 B7.2 expression, allergenic effect); format: cell-based, human; conditions: control substances, concentration not given
# Method: Three groups of cells are analyzed: 1) those which have not been exposed to oligorhamnosides or the selected activation signals, which will be used as negative controls, 2) those which were incubated for 24 hours with the activation signals, which will be used as positive controls, and 3) those which had been in contact with the oligorhamnosides for 24 hours. The culture medium used is a classical medium of type RPMI 1640 (Bioproducts), supplemented with 10% FCS, glutamine (2 mM) and the antibiotics penicillin and streptomycin (Bioproducts). The rinse liquid used is a PI buffer (Bioproducts). The cellular activator used is INFγ (SIGMA). The allergenic effect is reflected by the maturation of the dendritic cells and the expression of the CD86 B7.2 receptor. The more this receptor is expressed, the higher the proportion of mature cells and the more the rhamnosylated derivative studied has an allergenic effect.
# [3] = test system: LTB4 released by human neutrophilic leukocytes; assay: Assay of LTB4 released by human neutrophilic leukocytes; format: cell-based; conditions: stimulation buffer, 0.1 μM
# Method: (§1) Neutrophils are isolated from normal human blood and purified by an original method. They are then activated by a stimulation buffer which causes the release of two types of lipid molecules, arachidonic acid derivatives, arising from the cyclooxygenase and lipoxygenase pathways, namely the leukotriene LTB4 and the prostaglandin PGE2. This stimulation buffer contains in particular Ca^2+ and Mg^2+ ions. These assays are carried out by means of an ELISA-type commercial assay kit.
# The results represent the means of the values assayed in two supernatants of cells stimulated during the same experiment.
# [4] = test system: keratinocytes; assay: Toxicity test: viability of keratinocytes; format: cell-based; conditions: for % viability: vs control 100%
# From the text: 1) Principles of Cellular Viability Measurement Techniques • MTT [3-(4,5-[…])-2,5-diphenyl tetrazolium bromide] reduction technique (sold by Sigma).
# This technique corresponds to a […] test allowing quantification of living, metabolically active cells in a non-radioactive manner. MTT is a cationic molecule which is bound to the membranes of mitochondria in a potential-dependant fashion. On the level of the mitochondria, MTT will be reduced to formazan blue by mitochondrial dehydrogenase. The living cells are thus colored blue, in contrast with the dead cells which remain transparent. The measure of viability is then carried out by measurement of the optical density using an automatic reader.
# This method of analysis, however, seems to be better adapted for adherent cells (keratinocyte-type) than for non-adherent cells (monocytes and dendritic cells). Another study was thus envisaged to conclude on the cytotoxicity of the oligorhamnosides with respect to the differentiated cells analyzed, namely flow cytometry in the presence of propidium iodide. • XTT tetrazolium salt reduction technique.
# This is a technique allowing quantification of cellular proliferation and of the number of living (metabolically active) cells, without the incorporation of radioactive isotopes. XTT, yellow in color, is a cationic molecule which is bound to the membranes of mitochondria in a potential-dependant fashion, as does MTT.
# On the level of the mitochondria, XTT will be reduced to formazan (orange) by mitochondrial tetrazolium reductase. […] Indeed, the reduction product is soluble within the cell. The method is thus faster. Living cells, in the absence and presence of a treatment become colored, in contrast with dead cells which remain colorless. The level of formazan product is detected with the spectrophotometer at a wavelength of 450 nm and is directly proportional to the number of metabolically active cells.
# 2) Toxicity Tests • Keratinocytes were isolated and placed in culture from human skin biopsies. Measurements of optical density (absorbance) of the 4 wells treated with the same product concentration were averaged. This average was compared with the average of the measurements obtained for the 4 control wells (Student's t-test—comparison of means—significant difference at 95% if p<0.05 and 99% if p<0.01).
# The viabilities of the treated cells are expressed as a percentage compared to the control (untreated cells) of 100% (OD treated/OD control×100).
# [5] = test system: 6-ketoPGF1α released by NHK; assay: Assay of prostaglandin 6-ketoPGF1α after stimulation of keratinocytes (ELISA); format: cell-based, human; conditions: for inhibition at 1 µM: Homo sapiens, Keratinocyte, 2 h
# Method: Prostaglandin I2 (PGI2) is an unstable metabolite of the arachidonic acid degradation pathway. Like prostaglandin E2, it is a mediator of inflammation with vasodilatory properties. The instability of PGI2 lies in its rapid conversion (non-enzymatic hydration) to 6-keto prostaglandin F1α (6-ketoPG1α). It is thus this prostaglandin which is measured as a marker for PGI2 synthesis. PMA (phorbol-12-myristate-13-acetate) is an activator of protein kinase C. It is a non-physiological activator which mimics the effect of cytokines, including IL-1β on NHK, and encourages the cell to release a lipid molecule, the prostaglandin 6-ketoPGF1α. This prostaglandin is assayed by means of an ELISA. The two activators IL-1β and PMA are used. Indomethacin, an aspirin-type analgesic, is an anti-inflammatory drug (NSAID) which […]. It is used to inhibit the release of 6-ketoPGF1α. Two experiments were carried out. The first consists of pretreating the NHK with oligorhamnosides for 4 hours and then monitoring the stimulation for 2 hours in the presence of oligorhamnosides. A second experiment was carried out in which the pretreatment with oligorhamnosides was extended to 12 hours.
# [6] = test system: PGE2 released by human neutrophilic leukocytes; assay: Assay of PGE2 released by human neutrophilic leukocytes; format: cell-based
# Method: as §1, with “kit. The results represent the means of the values assayed in two supernatants of cells stimulated during the same experiment.” for “kit.”
# [7] = test system: endothelial cells; assay: Cytotoxicity test (MTT) on endothelial cell lines; format: cell-based
# Method: • Endothelial cells were placed in culture, immortalized and stabilized in their phenotype. The cell lines studied were appendix endothelial cells, brain microvascular endothelial cells, mesenteric lymphatic ganglia endothelial cells, peripheral lymphatic ganglia endothelial cells and skin microvascular endothelial cells.
# The cytotoxicity test was carried out by means of a biochemical test on the transformation of a tetrazolium salt, MTT. […] Viability is indeed always greater than 85%, and this is true for all of the cells lines studied.
# [8] = IL-1β stimulation 2 hours 1 ng/ml, 1 μM
# [9] = PMA stimulation 2 hours 10 ng/ml, 1 μM
structure (smiles),measurement,setting,value
C[S+](C)[O-] [DMSO control],"Viability (propidium iodide, PI)",[1],1.27%
same,CD86 B7.2 (Maturation),[2],0.17%
"CC(Cc1ccc(O)c(O)c1)C(C)Cc1ccc(O)c(O)c1 (stereo not shown) [NDGA, nordihydroguaiaretic acid]",% inhibition (LTB4 released),[3],73%
same,"LTB4 released, Stimulation",[3],684 ± 185 pg/mL
"C[C@H](O)[C@H](O)[C@@H](O)[C@@H](O)C=O [Rhamnose, rhamnose]",% viability,[4]; 0.001 mg/ml,95%
same,% viability,[4]; 0.01 mg/ml,100%
same,% viability,[4]; 0.1 mg/ml,98%
same,% viability,[4]; 1 mg/ml,104%
same,cytotoxicity (in words),[4]; even for the highest concentrations,does not exhibit cytotoxicity
COc1ccc2c(c1)c(CC(=O)O)c(C)n2C(=O)c1ccc(Cl)cc1 [indomethacin],inhibition at 1 µM,[5]; [8],17%
same,inhibition at 1 µM,[5]; [9],37%
same,Mean 6-ketoPGF1α,[5]; [8],22.6 ± 3.4 pg/ml/μg proteins
same,Mean 6-ketoPGF1α,[5]; [9],20.9 ± 4.9 pg/ml/μg proteins
same,Mean 6-ketoPGF1α,"[5]; Table 7 experiment, IL-1β stimulation 2 hours 1 ng/ml, concentration not given",22.6 ± 3.4 pg/ml/μg proteins
same,"PGE2 released, Without stimulation",[6]; 1 μM,4.5 ± 0 pg/mL
same,inhibition at 1 µM,"[6]; Homo sapiens, Leukocyte, stimulation buffer",69%
same,"PGE2 released, Stimulation","[6]; stimulation buffer, 1 μM",6.8 ± 1 pg/mL
CCCCCOC1O[C@@H](C)[C@H](O)[C@@H](O)[C@H]1O (stereo partly shown) [pentyl-rhamnoside],Viability,[7]; all of the cell lines studied,greater than 85%
same,toxicity (in words),[7]; endothelial cell lines,no toxicity
